Our source for the Ki values is patent US10392391B2 (Vertex Pharmaceuticals Incorporated, priority 2012, dated 2019).

The assay deals with ATR kinase (full-length ATR) (Homo sapiens (Human), UniProt Q13535). Nature of the assay: ATR inhibition assay (radioactive-phosphate incorporation). The format is biochemical. In outline: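 Ki(app) was fitted by non-linear regression to background-corrected initial rates. Full-length ATR (5 nM) phosphorylated 800 μM peptide using 10 μM [γ-33P]ATP at 25° C in Tris/HCl pH 7.5 buffer with MgCl2, DTT and 7% DMSO. After 10-minute compound pre-incubation and 24-hour reaction, phosphocellulose filters were scintillation counted.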
ATR kinase (full-length ATR), sequence (Q13535 whole entry): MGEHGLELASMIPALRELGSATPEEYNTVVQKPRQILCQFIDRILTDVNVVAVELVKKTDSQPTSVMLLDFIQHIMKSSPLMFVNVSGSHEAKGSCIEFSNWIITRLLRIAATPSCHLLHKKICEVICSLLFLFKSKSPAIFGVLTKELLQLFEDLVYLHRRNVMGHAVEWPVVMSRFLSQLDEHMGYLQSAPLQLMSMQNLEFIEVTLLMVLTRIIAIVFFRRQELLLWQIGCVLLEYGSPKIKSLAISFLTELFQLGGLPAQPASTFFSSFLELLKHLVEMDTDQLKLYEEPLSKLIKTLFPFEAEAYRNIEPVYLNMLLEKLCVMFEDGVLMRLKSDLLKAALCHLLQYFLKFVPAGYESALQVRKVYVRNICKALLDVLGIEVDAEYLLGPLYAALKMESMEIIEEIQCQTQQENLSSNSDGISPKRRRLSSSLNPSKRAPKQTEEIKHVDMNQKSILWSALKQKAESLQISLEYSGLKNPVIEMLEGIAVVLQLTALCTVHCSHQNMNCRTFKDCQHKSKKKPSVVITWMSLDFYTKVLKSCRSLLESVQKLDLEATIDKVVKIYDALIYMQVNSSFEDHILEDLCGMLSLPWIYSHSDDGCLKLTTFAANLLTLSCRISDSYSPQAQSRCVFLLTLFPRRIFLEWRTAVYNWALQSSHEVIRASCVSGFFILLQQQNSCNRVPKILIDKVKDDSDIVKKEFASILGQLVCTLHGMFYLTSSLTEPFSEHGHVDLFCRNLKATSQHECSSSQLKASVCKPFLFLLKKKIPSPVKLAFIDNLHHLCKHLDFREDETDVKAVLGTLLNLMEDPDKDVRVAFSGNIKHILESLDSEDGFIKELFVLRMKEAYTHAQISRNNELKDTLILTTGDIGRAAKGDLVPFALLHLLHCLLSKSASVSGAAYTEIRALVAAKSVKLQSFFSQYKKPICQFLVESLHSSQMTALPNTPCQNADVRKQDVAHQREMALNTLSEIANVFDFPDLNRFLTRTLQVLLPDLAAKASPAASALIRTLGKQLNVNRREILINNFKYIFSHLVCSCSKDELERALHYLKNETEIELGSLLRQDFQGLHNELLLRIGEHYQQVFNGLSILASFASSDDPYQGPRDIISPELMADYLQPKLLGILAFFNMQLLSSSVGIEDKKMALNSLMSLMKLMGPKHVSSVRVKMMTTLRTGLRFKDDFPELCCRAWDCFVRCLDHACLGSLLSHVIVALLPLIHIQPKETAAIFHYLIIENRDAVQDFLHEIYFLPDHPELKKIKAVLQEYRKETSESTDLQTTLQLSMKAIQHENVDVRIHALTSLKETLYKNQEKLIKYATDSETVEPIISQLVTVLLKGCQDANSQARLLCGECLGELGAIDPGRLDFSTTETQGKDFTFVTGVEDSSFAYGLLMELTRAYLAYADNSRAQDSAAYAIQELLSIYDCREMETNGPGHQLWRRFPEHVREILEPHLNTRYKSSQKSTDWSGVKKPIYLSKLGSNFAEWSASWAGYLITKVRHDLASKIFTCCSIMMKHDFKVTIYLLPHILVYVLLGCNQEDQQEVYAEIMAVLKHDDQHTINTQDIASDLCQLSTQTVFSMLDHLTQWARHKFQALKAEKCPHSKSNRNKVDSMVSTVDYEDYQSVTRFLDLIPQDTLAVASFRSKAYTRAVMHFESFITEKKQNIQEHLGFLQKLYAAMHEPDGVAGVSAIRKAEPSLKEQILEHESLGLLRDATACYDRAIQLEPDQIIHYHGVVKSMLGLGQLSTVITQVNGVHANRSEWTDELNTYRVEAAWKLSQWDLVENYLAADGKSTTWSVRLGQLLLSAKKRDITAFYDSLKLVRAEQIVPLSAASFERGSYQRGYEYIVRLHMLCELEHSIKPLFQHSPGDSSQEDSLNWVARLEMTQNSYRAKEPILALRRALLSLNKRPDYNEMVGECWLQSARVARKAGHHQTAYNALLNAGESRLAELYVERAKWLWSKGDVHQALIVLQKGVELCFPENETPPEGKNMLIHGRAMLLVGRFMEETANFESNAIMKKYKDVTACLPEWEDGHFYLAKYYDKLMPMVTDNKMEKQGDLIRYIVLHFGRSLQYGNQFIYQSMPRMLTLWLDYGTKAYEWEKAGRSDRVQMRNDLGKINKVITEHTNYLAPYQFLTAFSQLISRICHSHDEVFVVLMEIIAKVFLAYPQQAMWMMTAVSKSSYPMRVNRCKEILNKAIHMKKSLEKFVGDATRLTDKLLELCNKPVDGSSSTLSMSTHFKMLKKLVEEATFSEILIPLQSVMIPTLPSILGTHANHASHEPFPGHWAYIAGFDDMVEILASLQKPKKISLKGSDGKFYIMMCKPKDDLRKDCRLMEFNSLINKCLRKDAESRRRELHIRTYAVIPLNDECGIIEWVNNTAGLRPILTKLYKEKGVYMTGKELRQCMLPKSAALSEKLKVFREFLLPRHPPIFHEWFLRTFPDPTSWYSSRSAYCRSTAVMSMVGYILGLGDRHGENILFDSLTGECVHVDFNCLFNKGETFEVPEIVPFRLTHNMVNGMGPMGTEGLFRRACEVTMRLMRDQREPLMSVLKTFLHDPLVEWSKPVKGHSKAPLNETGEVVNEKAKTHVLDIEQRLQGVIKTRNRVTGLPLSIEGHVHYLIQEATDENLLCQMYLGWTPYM

[1] abbreviates: Ki(app), 5 nM full-length ATR, 10 μM ATP, 25° C.

pKi: −log10 of the molar value. Where two headings read alike, the source gives them in different places.

Regarding `Nc1nn2cc(F)cnc2c1C(=O)Nc1cnccc1-c1cncnc1` [I-C-28, 2-amino-6-fluoro-N-(4-(pyrimidin-5-yl)pyridin-3-yl)pyrazolo[1,5-a]pyrimidine-3-carboxamide], the pKi under setting [1] is 6.00 to 8.00. The same measure, in the same setting: next, `CC1(N2CCN(C(=O)C3CCN(c4c(F)cncc4NC(=O)c4c(N)nn5cc(F)cnc45)CC3)CC2)COC1` [I-G-92, 2-amino-6-fluoro-N-(5-fluoro-4-(4-(4-(3-methyloxetan-3-yl)piperazine-1-carbonyl)piperidin-1-yl)pyridin-3-yl)pyrazolo[1,5-a]pyrimidine-3-carboxamide]: 6.00 to 8.00; `Nc1nn2cc(F)cnc2c1C(=O)Nc1cnccc1C1CCN(C(=O)C23CCN(CC2)CC3)CC1` [I-C-18, 2-amino-6-fluoro-N-(4-(1-(quinuclidine-4-carbonyl)piperidin-4-yl)pyridin-3-yl)pyrazolo[1,5-a]pyrimidine-3-carboxamide]: 6.00 to 8.00; `Nc1nn2cc(Cl)cnc2c1C(=O)Nc1cnccc1N1CCC(N2CCn3ccnc3C2)CC1` [I-N-102, 2-amino-6-chloro-N-(4-(4-(5,6-dihydroimidazo[1,2-a]pyrazin-7(8H)-yl)piperidin-1-yl)pyridin-3-yl)pyrazolo[1,5-a]pyrimidine-3-carboxamide]: 6.00 to 8.00. Regarding `Nc1nn2cc(F)cnc2c1C(=O)Nc1cncc(F)c1N1CCC(C(=O)N2CC(F)C2)CC1` [I-G-74, 2-amino-6-fluoro-N-(5-fluoro-4-(4-(3-fluoroazetidine-1-carbonyl)piperidin-1-yl)pyridin-3-yl)pyrazolo[1,5-a]pyrimidine-3-carboxamide], under setting [1], the pKi was 6.00 to 8.00.

Take `CN1CCN(CC2CCN(c3c(F)cncc3NC(=O)c3c(N)nn4cc(F)cnc34)CC2)C(=O)C1` [I-N-193, 2-amino-6-fluoro-N-(5-fluoro-4-(4-((4-methyl-2-oxopiperazin-1-yl)methyl)piperidin-1-yl)pyridin-3-yl)pyrazolo[1,5-a]pyrimidine-3-carboxamide]: the pKi under setting [1] was 6.00 to 8.00. Still for that read-out and setting: next, `N#CCc1cnc2c(C(=O)Nc3cnccc3N3CCOCC3)c(N)nn2c1` [I-N-81, 2-amino-6-(cyanomethyl)-N-(4-morpholinopyridin-3-yl)pyrazolo[1,5-a]pyrimidine-3-carboxamide]: 6.00 to 8.00. Same read-out and setting: next, `Nc1nn2cc(F)cnc2c1C(=O)Nc1cnccc1N1CCCC2(COC2)C1` [I-N-253, N-(4-(2-oxa-6-azaspiro[3.5]nonan-6-yl)pyridin-3-yl)-2-amino-6-fluoropyrazolo[1,5-a]pyrimidine-3-carboxamide]: 6.00 to 8.00; `Nc1nn2cc(Cl)cnc2c1C(=O)Nc1cnccc1N1CCNC(C(F)(F)F)C1` (centres unmarked) [I-N-70, 2-amino-6-chloro-N-(4-(3-(trifluoromethyl)piperazin-1-yl)pyridin-3-yl)pyrazolo[1,5-a]pyrimidine-3-carboxamide]: 6.00 to 8.00. Still for that read-out and setting: next, `Nc1nn2cc(F)cnc2c1C(=O)Nc1cncc(F)c1N1CCN(C(=O)C2COC2)CC1` [I-N-278, 2-amino-6-fluoro-N-(5-fluoro-4-(4-(oxetane-3-carbonyl)piperazin-1-yl)pyridin-3-yl)pyrazolo[1,5-a]pyrimidine-3-carboxamide]: 6.00 to 8.00.

In the case of `CN1CCN(C(=O)N2CCN(c3c(F)cncc3NC(=O)c3c(N)nn4cc(F)cnc34)CC2)CC1` [I-N-140, 2-amino-6-fluoro-N-(5-fluoro-4-(4-(4-methylpiperazine-1-carbonyl)piperazin-1-yl)pyridin-3-yl)pyrazolo[1,5-a]pyrimidine-3-carboxamide], the pKi under setting [1] was 6.00 to 8.00. On the same count and under the same terms, the value for `Nc1nn2cc(F)cnc2c1C(=O)Nc1cnccc1N1CCN([C@H]2CCOC2)CC1` [I-N-12, (S)-2-amino-6-fluoro-N-(4-(4-(tetrahydrofuran-3-yl)piperazin-1-yl)pyridin-3-yl)pyrazolo[1,5-a]pyrimidine-3-carboxamide] was 6.00 to 8.00; that for `CN1CCC(c2ccncc2NC(=O)c2c(N)nn3cc(F)cnc23)CC1=O` (centres unmarked) [I-C-73, 2-amino-6-fluoro-N-(4-(1-methyl-2-oxopiperidin-4-yl)pyridin-3-yl)pyrazolo[1,5-a]pyrimidine-3-carboxamide] was 6.00 to 8.00; that for `COC(=O)[C@H]1CC[C@H](Oc2ccncc2NC(=O)c2c(N)nn3cc(F)cnc23)CC1` [I-O-13, (1r,4)-methyl 4-((3-(2-amino-6-fluoropyrazolo[1,5-a]pyrimidine-3-carboxamido)pyridin-4-yl)oxy)cyclohexanecarboxylate] was 6.00 to 8.00.

On to `CN(C)Cc1ccc(Oc2ccncc2NC(=O)c2c(N)nn3cc(F)cnc23)cn1` [I-O-3, 2-amino-N-(4-((6-((dimethylamino)methyl)pyridin-3-yl)oxy)pyridin-3-yl)-6-fluoropyrazolo[1,5-a]pyrimidine-3-carboxamide], for which the pKi under setting [1] was 6.00 to 8.00. Still for that read-out and setting: the value for `Nc1nn2cc(F)cnc2c1C(=O)Nc1cnccc1N1CCN(C2CCOCC2)CC1` [I-N-11, 2-amino-6-fluoro-N-(4-(4-(tetrahydro-2H-pyran-4-yl)piperazin-1-yl)pyridin-3-yl)pyrazolo[1,5-a]pyrimidine-3-carboxamide] was 6.00 to 8.00; that for `Nc1nn2cc(F)cnc2c1C(=O)Nc1cnccc1OC1COC1` [I-O-92, 2-amino-6-fluoro-N-(4-(oxetan-3-yloxy)pyridin-3-yl)pyrazolo[1,5-a]pyrimidine-3-carboxamide] was 6.00 to 8.00; that for `COCC1CN(C(=O)C2CCN(c3c(F)cncc3NC(=O)c3c(N)nn4cc(F)cnc34)CC2)C1` [I-G-98, 2-amino-6-fluoro-N-(5-fluoro-4-(4-(3-(methoxymethyl)azetidine-1-carbonyl)piperidin-1-yl)pyridin-3-yl)pyrazolo[1,5-a]pyrimidine-3-carboxamide] was 6.00 to 8.00. The same measure, in the same setting: the value for `COCCN1CCN(c2ccncc2NC(=O)c2c(N)nn3cc(Cl)cnc23)CC1` [I-N-60, 2-amino-6-chloro-N-(4-(4-(2-methoxyethyl)piperazin-1-yl)pyridin-3-yl)pyrazolo[1,5-a]pyrimidine-3-carboxamide] was 6.00 to 8.00. Consider `CN(C)[C@H]1CCN(c2ccncc2NC(=O)c2c(N)nn3cc(Cl)cnc23)C[C@@H]1O` [I-N-35, 2-amino-6-chloro-N-(4-((3S,4S)-4-(dimethylamino)-3-hydroxypiperidin-1-yl)pyridin-3-yl)pyrazolo[1,5-a]pyrimidine-3-carboxamide], for which the pKi is 5.30 to 6.00. Regarding `N#CCc1cnc2c(C(=O)Nc3cnccc3OCC(F)(F)F)c(N)nn2c1` [I-O-34, 2-amino-6-(cyanomethyl)-N-(4-(2,2,2-trifluoroethoxy)pyridin-3-yl)pyrazolo[1,5-a]pyrimidine-3-carboxamide], the pKi under setting [1] is greater than 8.00. As to `CN1CCC[C@@H]1C(=O)N1CCN(c2ccncc2NC(=O)c2c(N)nn3cc(F)cnc23)CC1` [I-N-199, (R)-2-amino-6-fluoro-N-(4-(4-(1-methylpyrrolidine-2-carbonyl)piperazin-1-yl)pyridin-3-yl)pyrazolo[1,5-a]pyrimidine-3-carboxamide], under setting [1], the pKi was 6.00 to 8.00. Consider `Nc1nn2cc(Cl)cnc2c1C(=O)Nc1cnccc1N1CCC(N2CC(F)(F)C2)CC1` [I-N-108, 2-amino-6-chloro-N-(4-(4-(3,3-difluoroazetidin-1-yl)piperidin-1-yl)pyridin-3-yl)pyrazolo[1,5-a]pyrimidine-3-carboxamide], for which, under setting [1], the pKi was 6.00 to 8.00.

Consider `Nc1nn2cc(F)cnc2c1C(=O)Nc1cnccc1O[C@H]1CCCNC1` [I-O-85, (S)-2-amino-6-fluoro-N-(4-(piperidin-3-yloxy)pyridin-3-yl)pyrazolo[1,5-a]pyrimidine-3-carboxamide], for which the pKi under setting [1] was 6.00 to 8.00. Same read-out and setting: next, `Nc1nn2cc(F)cnc2c1C(=O)Nc1cnccc1N1CCN2C(=O)COCC2C1` (centres unmarked) [I-N-136, 2-amino-6-fluoro-N-(4-(4-oxohexahydropyrazino[2,1-c][1,4]oxazin-8(1H)-yl)pyridin-3-yl)pyrazolo[1,5-a]pyrimidine-3-carboxamide]: 6.00 to 8.00; `Nc1nn2cc(Cl)cnc2c1C(=O)Nc1cnccc1N1CCC(N2CC[C@H](F)C2)CC1` [I-N-103, (S)-2-amino-6-chloro-N-(4-(4-(3-fluoropyrrolidin-1-yl)piperidin-1-yl)pyridin-3-yl)pyrazolo[1,5-a]pyrimidine-3-carboxamide]: 6.00 to 8.00.

`Nc1nn2cc(Cl)cnc2c1C(=O)Nc1cnccc1N1CCC(N2CCC23COC3)CC1` [I-N-109, N-(4-(4-(6-oxa-1-azaspiro[3.3]heptan-1-yl)piperidin-1-yl)pyridin-3-yl)-2-amino-6-chloropyrazolo[1,5-a]pyrimidine-3-carboxamide]: the pKi under setting [1] is 6.00 to 8.00. Turning to `CN1CCN(c2ccncc2NC(=O)c2c(N)nn3cc(Cl)cnc23)CC1CO` (centres unmarked) [I-N-63, 2-amino-6-chloro-N-(4-(3-(hydroxymethyl)-4-methylpiperazin-1-yl)pyridin-3-yl)pyrazolo[1,5-a]pyrimidine-3-carboxamide], the pKi under setting [1] is 6.00 to 8.00. Still for that read-out and setting: next, `CCn1cncc1-c1ccncc1NC(=O)c1c(N)nn2cc(F)cnc12` [I-C-80, 2-amino-N-(4-(1-ethyl-1H-imidazol-5-yl)pyridin-3-yl)-6-fluoropyrazolo[1,5-a]pyrimidine-3-carboxamide]: 6.00 to 8.00; `CC(C#N)c1cnc2c(C(=O)Nc3cnccc3N3CCN(C)CC3)c(N)nn2c1` (centres unmarked) [I-N-78, 2-amino-6-(1-cyanoethyl)-N-(4-(4-methylpiperazin-1-yl)pyridin-3-yl)pyrazolo[1,5-a]pyrimidine-3-carboxamide]: 6.00 to 8.00; `CN(C)CCOc1cc(Cl)ncc1NC(=O)c1c(N)nn2cc(Cl)cnc12` [I-O-68, 2-amino-6-chloro-N-(6-chloro-4-(2-(dimethylamino)ethoxy)pyridin-3-yl)pyrazolo[1,5-a]pyrimidine-3-carboxamide]: 6.00 to 8.00. Same read-out and setting: the value for `Nc1nn2cc(F)cnc2c1C(=O)Nc1cncc(Cl)c1N1CCC(C(=O)N2CCN3CCC2C3)CC1` (centres unmarked) [I-G-69, N-(4-(4-(1,4-diazabicyclo[3.2.1]octane-4-carbonyl)piperidin-1-yl)-5-chloropyridin-3-yl)-2-amino-6-fluoropyrazolo[1,5-a]pyrimidine-3-carboxamide] was 6.00 to 8.00.

Broadly, the pKi is the Ki on a negative log10 scale, so that one unit is a factor of ten.
